The values that follow come from PMC7588429, “Structure/activity virtual screening and in vitro testing of small molecule inhibitors of 8-hydroxy-5-deazaflavin:NADPH oxidoreductase from gut methanogenic bacteria” (Scientific Reports, 2020).

The target of series [1] is T1, FNO from M. smithii (Methanobrevibacter smithii, UniProt A5UJ76). Kind of series: SPR optical biosensor binding to immobilized FNO. Particulars: for kass / kdiss / kon / koff: PBS pH 7.4; for kon: read-out: kass; for koff: read-out: kdiss. As for the experimental part: FNO was covalently immobilized on a carboxylate surface according to the protocol described in the Materials and Methods section. The change in the signal related to immobilization of the enzyme (ΔR ≅ 1,000 arcsec) corresponded to the achievement of a partial Langmuir monolayer for a protein of 120 kDa (2 ng/mm^2). The affinities of FNO for the ten compounds of interest were derived from the fit of raw data (representative sensorgrams are shown in Fig. 8; full panel is provided in Supplemental Information) to a mono-exponential model.
FNO from M. smithii (isolated as described in the Supplementary Information) was covalently coupled to the carboxylate surface of the sensor via EDC/NHS chemistry. Upon successful immobilization of FNO, unreacted carboxyl groups were blocked with ethanolamine 1 M pH 8.5, and the surface was eventually equilibrated with PBS. Independent additions of each molecule at different concentrations (β-D-glucose pentacetate 1.25–62.5 µM; mangiferin 3.125–37.5 µM; baicalin 1.25–25 µM; frangulin A 30–480 nM; ononin 29–465 nM; 5z-caffeoylquinic acid […]; ZINC35442308 0.30–4.92 µM; ZINC248099510 0.31–4.93 µM; ZINC2120951 0.32–5.1 µM; ZINC9271779 0.32–5.2 µM) to surface-blocked FNO were performed, each time monitoring the association kinetics until equilibrium. […] The affinities between surface-blocked FNO and soluble ligands were derived from the fit of raw data to single exponential model.

Series [2] has as its target T1, FNO from M. smithii. As to the kind of experiment: Fluorometric FNO activity inhibition assay (F420 reduction with NADPH). It is filed as biochemical. As for the experimental part: According to the fluorometric assay of FNO activity, we observed an evident decrease in F420 reduction rates upon 15 min preincubation of FNO with increasing levels of the ten representative compounds of interest (the superimposition of representative residual activity plots obtained with β-D-glucose pentaacetate, mangiferin and baicalin are shown in Fig. 11; the full panel is provided in Supplemental Information).
FNO catalyses the reduction of NADP^+ with F420H2 via hydride transfer, and the reverse reaction, i.e. the reduction of F420 with NADPH. Here, the spectrofluorometric assay of FNO activity was based on monitoring the decrease in F420 emission at 470 nm upon excitation at 420 nm. Briefly, FNO (4 nM) was incubated with 0.5 mM F420 (purified from T. roseum as described in the Supplementary Information) and 0.5 mM NADPH (this concentration was selected on the basis of Km values in other methanogenic organisms[42]) at 37 °C in the presence or in the absence of increasing concentrations of the compounds of interest in 50 mM sodium citrate, pH 6.0. […] The residual activity ( a ) was expressed as the ratio of the initial velocities of the product formation in the presence ( V0,i ) and in the absence ( V0 ) of a given inhibitor concentration [Ii]. Raw data were processed as described elsewhere.

In series [3] the test system is FNO. As to the kind of experiment: Competitive binding test with NADP+ on biosensor. Set-up: species or system Methanobrevibacter smithii. As for the experimental part: A competitive binding test between NADP^+ and three out of the ten compounds (with high, moderate and low affinity for FNO, respectively) was performed to identify the binding site on FNO. The protocol involved the addition of a given concentration of baicalin, mangiferin and β-D-glucose pentaacetate to both free and NADP^+-saturated FNO.

The target in series [4] is T1, FNO from M. smithii. Kind of series: Molecular docking (AutoDock Vina) onto the homology model of FNO. As to conditions: predicted. An excerpt:
The 8,012 compounds selected from the Zbc database subset on molecular weight and clogP criteria were individually docked against the homology model of FNO from M. smithii using a Perl/Python pipeline on AutoDock Vina. The residues constituting the catalytic site of FNO were retrieved from the available literature[19] and explicitly defined as the grid centre for all ligands. The quantitative results of docking in terms of ΔGpred of each highest-score pose were collected into a single array (ΔGpred values ranged between − 4.9 and − 10.5 kcal/mol), which was then merged with the other structural descriptors (as PSA, H-donors and acceptors, cLogP, MW, Drug-likeness, Total surface area) available for each compound as summarized in Supplementary Information.
In the absence of a crystallographic structure for FNO from M. smithii, its three-dimensional structure was obtained by homology modelling, according to a previously reported procedure. […]
8,012 molecules selected from the Zbc subset of ZINC database[36] on molecular weight (350–450 amu) and hydrophobicity (cLogP < 3.85) criteria were iteratively docked to the homology model of FNO from M. smithii using AutoDock Vina[37]. […] Structural properties of each molecule and calculated binding affinities to FNO were globally analysed with DataWarrior[38].

For series [5], the system named is FNO. Kind of series: pH dependence of mangiferin-FNO binding (biosensor, linkage analysis). Particulars: 7.35 ± 0.33 in free enzyme.
Procedure: In order to evaluate the effects of pH on the enzyme-ligand interaction, the binding of mangiferin (6.25–62.5 µM) to FNO was studied at different pH values in the range 6.0–8.0.
To evaluate the effects of pH on the enzyme-ligand interaction, the binding studies between mangiferin and FNO were replicated in a pH range between 6.4 and 8. The observed dependence of experimental KD from pH was analyzed according to a classic linkage relationship, protons being considered as heterotropic ligands for FNO[40]. This model involves a macromolecule (FNO) having a binding site for a ligand (mangiferin), and heterotropic binding sites able to accommodate a second ligand (H^+). These binding sites for protons present on the macromolecule can be grouped into two main sets: one with n binding sites with an ionization constant λ1, and one with m binding sites, each having an ionization constant equal to λ2. Therefore, the macromolecule can be described in three main ionization conditions: at low and at high pH values the fully protonated and the completely deprotonated forms prevail, respectively, whereas the intermediate form prevails at pH values equal to:1 pH=-logλ1-logλ2/2
Upon binding, the proton binding sites have their ionization constants shifted to λ3 and λ4, respectively. […]
The mark [6] stands for this setting: experimental equilibrium constant, read-out: KD,E.
The mark [7] stands for this setting: 0.5 mM NADPH, 15 min preincubation, pH 6.0, 37 °C.
The mark [8] stands for this setting: 0.5 mM NADPH, 15 min preincubation, pH 6.0, 37 °C, read-out: Ki.

Like-named read-outs stand apart in the source and are kept apart here.

T1 sequence (A5UJ76 entry or part of it): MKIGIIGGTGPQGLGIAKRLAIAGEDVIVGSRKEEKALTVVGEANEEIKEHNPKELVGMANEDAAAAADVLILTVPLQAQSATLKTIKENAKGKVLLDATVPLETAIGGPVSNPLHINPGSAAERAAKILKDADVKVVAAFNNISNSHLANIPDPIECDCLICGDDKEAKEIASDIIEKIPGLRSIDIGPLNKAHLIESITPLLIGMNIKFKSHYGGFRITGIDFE

The term Kd denotes a measure of binding affinity in units of concentration. Usually Ki stands for a dissociation constant, usually derived from enzyme kinetics or from competition with a known ligand. Turning to `COc1cc(OC)c2c(C)c(CC(=O)NCC(=O)NCC(=O)O)c(=O)oc2c1` [ZINC2120951], on FNO from M. smithii [1], the kass is reported as 2,423 ± 116 M^−1 s^−1 and the kdiss was 0.004 ± 0.001 s⁻¹. Also, the Kd at FNO from M. smithii [1] (setting [6]) was 1650 ± 410 nM. The affinity at FNO from M. smithii [2] (setting [7]) corresponds to a Ki of 970 ± 670 nM.
For the molecule `CC(=O)OC[C@H]1O[C@@H](OC(C)=O)[C@H](OC(C)=O)[C@@H](OC(C)=O)[C@@H]1OC(C)=O` [β-D-glucose pentaacetate], on FNO from M. smithii [1], the kon was found to be 2720 M⁻¹ s⁻¹ and the koff worked out at 0.013 ± 0.005 s⁻¹. Also, at FNO from M. smithii [1] (setting [6]), the dissociation constant Kd was determined as 4850 ± 1850 nM. In addition, the Ki at FNO from M. smithii [2] (setting [8]) stood at 3960 ± 200 nM. Further, the “biosensor response on NADP+-saturated FNO with respect to free enzyme” value (from here on “biosensor response … to free enzyme”) in the series on FNO [3] was “significantly lower”.
As for `O=c1c2cc(O)c(O)cc2oc2cc(O)c([C@@H]3O[C@H](CO)[C@@H](O)[C@H](O)[C@H]3O)c(O)c12` [Mangiferin], on FNO from M. smithii [4], the “affinity for FNO with respect to ZINC05409528” value was “nearly sevenfold lower affinity”. In addition, at FNO from M. smithii [1], the kon worked out at 4820 M⁻¹ s⁻¹ and the koff stood at 0.002 ± 0.00097 s⁻¹. The Kd at FNO from M. smithii [1] (setting [6]) was determined as 400 ± 200 nM. For the same molecule, the Ki at FNO from M. smithii [2] (setting [8]) worked out at 650 ± 250 nM. In addition, in the series on FNO [3], the “biosensor response … to free enzyme” value is “significantly lower”. The “pKa of histidine residue in FNO-mangiferin complex” value in the series on FNO [5] (pH 6.4 to 7.4) turned out to be 5.26 ± 2.61. The “pKa of histidine residue in FNO-mangiferin complex” value in the series with FNO [5] (pH 7.4 to 8.0) amounted to 8.21 ± 0.12.
Regarding `O=C(C=Cc1ccc(O)c(O)c1)OC1CC(O)(C(=O)O)CC(O)C1O` (stereo not drawn) [5z-caffeoylquinic acid], at FNO from M. smithii [1], the kass is given as 20,406 ± 2,270 M^−1 s^−1 and the kdiss turned out to be 0.005 ± 0.003 s⁻¹. Also, on FNO from M. smithii [1] (setting [6]), the dissociation constant (Kd) was found to be 230 ± 160 nM. At FNO from M. smithii [2] (setting [7]), this molecule gave a Ki of 210 ± 140 nM.
For the molecule `O=C(O)[C@H]1O[C@@H](Oc2cc3oc(-c4ccccc4)cc(=O)c3c(O)c2O)[C@H](O)[C@@H](O)[C@@H]1O` [Baicalin], at FNO from M. smithii [1], the affinity, expressed as Kd, was 65 ± 28 nM; the kon worked out at 3870 M⁻¹ s⁻¹; the koff worked out at 0.00025 ± 0.0001 s⁻¹. This molecule gave a Ki at FNO from M. smithii [2] of 45 ± 3 nM. In addition, in the series with FNO [3], the “biosensor response … to free enzyme” value is reported as “significantly lower”.
Regarding `COc1ccc(-c2coc3cc(O[C@@H]4O[C@H](CO)[C@@H](O)[C@H](O)[C@H]4O)ccc3c2=O)cc1` [Ononin], on FNO from M. smithii [1], the kon was 29700 M⁻¹ s⁻¹ and the koff worked out at 0.0072 ± 0.0033 s⁻¹. Besides, the Kd at FNO from M. smithii [1] (setting [6]) amounted to 240 ± 110 nM. Further, the Ki at FNO from M. smithii [2] (setting [8]) was found to be 205 ± 69 nM.
For the molecule `Cc1cc(O)c2c(c1)C(=O)c1cc(O[C@@H]3O[C@@H](C)[C@H](O)[C@@H](O)[C@H]3O)cc(O)c1C2=O` [Frangulin A], on FNO from M. smithii [1], the kon was 35200 M⁻¹ s⁻¹ and the koff worked out at 0.0045 ± 0.0014 s⁻¹. The Kd at FNO from M. smithii [1] (setting [6]) came to 130 ± 50 nM. The “increase of inhibitory potency from β-D-glucose pentaacetate” value on FNO from M. smithii [2] (0.5 mM NADPH) is reported as “approximately 100 fold”. The Ki on FNO from M. smithii [2] (setting [8]) was determined as 49 ± 14 nM.
In the case of `Nc1ncnc2c1nc(NN=Cc1ccccc1)n2C1OC(CO)C(O)C1O` (stereo not drawn) [ZINC9271779], on FNO from M. smithii [1], the kass is 1,147 ± 267 M^−1 s^−1 and the kdiss was determined as 0.0078 ± 0.0008 s⁻¹. The dissociation constant (Kd) at FNO from M. smithii [1] (setting [6]) is 6800 ± 1700 nM. This molecule also showed a Ki on FNO from M. smithii [2] (setting [7]) of 1070 ± 340 nM.
